This note sets out measurements from patent publication US10485803B2, “Pyrimidine compounds as JAK kinase inhibitors” (THERAVANCE BIOPHARMA R&D IP, LLC, priority 2016, dated 2019).

In data set [1] the test system is IL-13 induced STAT6 phosphorylation in HT-29 human colorectal adenocarcinoma cells. Nature of the data set: Cellular JAK potency assay: inhibition of IL-13. The data set is classed as cell-based. The conditions noted are these: HT-29 cells. As for the experimental part: The potency of test compounds for inhibition of the JAK-dependent cytokine interleuken-13 (IL-13) was assessed by measuring IL-13 (IL-13, R&D Systems) induced STAT6 phosphorylation in HT-29 human colorectal adenocarcinoma cells (ATCC).
The anti-STAT6 antibody (Cell Signaling Technologies) was conjugated to AlphaScreen acceptor beads (Perkin Elmer), while the anti-pSTAT6 (pTyr641) antibody (Cell Signaling Technologies) was biotinylated using EZ-Link Sulfo-NHS-Biotin (Thermo Scientific).
HT-29 cells were grown at 37° C. in a 5% CO2 humidified incubator in McCoy's 5a Modified medium (ATCC) supplemented with 10% FBS (Hyclone), 100 U/mL penicillin, 100 μg/mL streptomycin (Life Technologies), and 2 mM GlutaMAX (Life Technologies). On day 1 of the assay, cells were seeded at a 7,500 cells/well density in white poly-D-lysine-coated 384-well plates (Corning) with 25 μL medium, and were allowed to adhere overnight in the incubator. On day 2 of the assay, the medium was removed and replaced with 12 μL of assay buffer (Hank's Balanced Salt Solution/HBSS, 25 mM HEPES, and 1 mg/ml bovine serum albumin/BSA) containing dose-responses of test compounds. Compounds were serially diluted in DMSO and then diluted another 1000-fold in media to bring the final DMSO concentration to 0.1%. Cells were incubated with test compounds at 37° C. for 1 h, and followed by the addition of 12 μl of pre-warmed IL-13 (12 ng/ml in assay buffer) for stimulation. After incubating at 37° C. for 30 min, the assay buffer (containing compound and IL-13) was removed, and 10 μl of cell lysis buffer (25 mM HEPES, 0.1% SDS, 1% NP-40, 5 mM MgCl2, 1.3 mM EDTA, 1 mM EGTA, and supplement with Complete Ultra mini protease inhibitors and PhosSTOP from Roche Diagnostics). The plates were shaken at ambient temperature for 30 min before the addition of detection reagents. A mixture of biotin-anti-pSTAT6 and anti-STAT6 conjugated acceptor beads was added first and incubated at ambient temperature for 2 h, followed by the addition of streptavidin conjugated donor beads (Perkin Elmer). After a minimum of 2 h incubation, the assay plates were read on the EnVision plate reader.
Results were expressed as the negative logarithm of the IC50 value, pIC50.

Data set [2] addresses JAK1 (Homo sapiens (Human), UniProt P23458). Nature of the data set: LanthaScreen JAK biochemical assay, JAK1.
Description: (§1) A panel of four LanthaScreen JAK biochemical assays (JAK1, 2, 3 and Tyk2) were carried in a common kinase reaction buffer (50 mM HEPES, pH 7.5, 0.01% Brij-35, 10 mM MgCl2, and 1 mM EGTA). Recombinant GST-tagged JAK enzymes and a GFP-tagged STAT1 peptide substrate were obtained from Life Technologies.
(§2) Serially diluted compounds were pre-incubated with each of the four JAK enzymes and the substrate in white 384-well microplates (Corning) at ambient temperature for 1 h. ATP was subsequently added to initiate the kinase reactions in 10 μl total volume, with 1% DMSO. […] The plates were allowed to incubate at ambient temperature for 1 h before being read on the EnVision reader (Perkin Elmer).
(§3) For dose-response analysis, percent inhibition data were plotted vs. compound concentrations, and IC50 values were determined from a 4-parameter robust fit model with the Prism software (GraphPad Software). Results were expressed as pIC50 (negative logarithm of IC50) and subsequently converted to pKi (negative logarithm of dissociation constant, Ki) using the Cheng-Prusoff equation.
Data set [3] addresses JAK2 (Homo sapiens (Human), UniProt O60674). Kind of data set: LanthaScreen JAK biochemical assay, JAK2.
Description: as §1, §2, §3
Data set [4] can be described thus: Dynamic moisture sorption assessment. The data set is classed as physicochemical. The conditions noted are these: for hygroscopicity: 5% to 90% RH, two cycles of sorption and desorption; for weight gain in the humidity range of 5% to 90% relative humidity: 25° C. / room temperature. As for the experimental part: Dynamic moisture sorption (DMS) measurement was performed using a VTI atmospheric microbalance, SGA-100 system (VTI Corp., Hialeah, Fla. 33016). A weighed sample was used and the humidity was lowest possible value (close to 0% RH) at the start of the analysis. The DMS analysis consisted of an initial drying step (0% RH) for 120 minutes, followed by two cycles of sorption and desorption with a scan rate of 5% RH/step over the humidity range of 5% RH to 90% RH. The DMS run was performed isothermally at 25° C.

Data set [5] in a line: Determination of absorption in cannulated rats. It counts as in vivo, Sprague Dawley rats. The conditions noted are these: rat, oral vs IV dose, portal vein. The protocol:
Oral bioavailability (F %), fraction absorbed (Fa%) and fraction escaping hepatic clearance (Fh%) were determined in Sprague Dawley rats from the following two studies:
(1) Pharmacokinetics in rats following an IV dose of test compound: Following IV dosing, plasma samples were typically collected from 0-6 hr. Drug levels were determined using an LC-MS-MS method. The resulting drug levels were used to compute the IV pharmacokinetic parameters: AUC IV and Dose IV.
(2) Rats that have been cannulated in their portal vein (PV) and also in their jugular vein (JV) were dosed orally with test compound. Following oral dosing, plasma samples were typically collected from 0-6 hr from both the portal vein and the jugular vein. Drug levels were determined using an LC-MS-MS method. The resulting drug levels were used to compute the following pharmacokinetic parameters: AUC PO PV, AUC PO JV, and Dose PO.
Using data derived from the above studies, the oral bioavailability F %, and the quantities Fa% and Fh% were calculated from the following formulas: F%=(AUC PO JV/AUC IV)*(Dose IV/Dose PO)*100 Fa%=(AUC PO PV/AUC IV)*(Dose IV/Dose PO)*100 Fh%=AUC PO JV/AUC PO PV • where: • AUC PO JV=Area under the curve following oral dose and plasma collected from the jugular vein • AUC PO PV=Area under the curve following oral dose and plasma collected from the portal vein • AUC IV=Area under the curve following an intravenous dose • Dose IV=Intravenous Dose in mg/kg • Dose PO=Oral Dose in mg/kg

Sequence of JAK1 (P23458 whole entry): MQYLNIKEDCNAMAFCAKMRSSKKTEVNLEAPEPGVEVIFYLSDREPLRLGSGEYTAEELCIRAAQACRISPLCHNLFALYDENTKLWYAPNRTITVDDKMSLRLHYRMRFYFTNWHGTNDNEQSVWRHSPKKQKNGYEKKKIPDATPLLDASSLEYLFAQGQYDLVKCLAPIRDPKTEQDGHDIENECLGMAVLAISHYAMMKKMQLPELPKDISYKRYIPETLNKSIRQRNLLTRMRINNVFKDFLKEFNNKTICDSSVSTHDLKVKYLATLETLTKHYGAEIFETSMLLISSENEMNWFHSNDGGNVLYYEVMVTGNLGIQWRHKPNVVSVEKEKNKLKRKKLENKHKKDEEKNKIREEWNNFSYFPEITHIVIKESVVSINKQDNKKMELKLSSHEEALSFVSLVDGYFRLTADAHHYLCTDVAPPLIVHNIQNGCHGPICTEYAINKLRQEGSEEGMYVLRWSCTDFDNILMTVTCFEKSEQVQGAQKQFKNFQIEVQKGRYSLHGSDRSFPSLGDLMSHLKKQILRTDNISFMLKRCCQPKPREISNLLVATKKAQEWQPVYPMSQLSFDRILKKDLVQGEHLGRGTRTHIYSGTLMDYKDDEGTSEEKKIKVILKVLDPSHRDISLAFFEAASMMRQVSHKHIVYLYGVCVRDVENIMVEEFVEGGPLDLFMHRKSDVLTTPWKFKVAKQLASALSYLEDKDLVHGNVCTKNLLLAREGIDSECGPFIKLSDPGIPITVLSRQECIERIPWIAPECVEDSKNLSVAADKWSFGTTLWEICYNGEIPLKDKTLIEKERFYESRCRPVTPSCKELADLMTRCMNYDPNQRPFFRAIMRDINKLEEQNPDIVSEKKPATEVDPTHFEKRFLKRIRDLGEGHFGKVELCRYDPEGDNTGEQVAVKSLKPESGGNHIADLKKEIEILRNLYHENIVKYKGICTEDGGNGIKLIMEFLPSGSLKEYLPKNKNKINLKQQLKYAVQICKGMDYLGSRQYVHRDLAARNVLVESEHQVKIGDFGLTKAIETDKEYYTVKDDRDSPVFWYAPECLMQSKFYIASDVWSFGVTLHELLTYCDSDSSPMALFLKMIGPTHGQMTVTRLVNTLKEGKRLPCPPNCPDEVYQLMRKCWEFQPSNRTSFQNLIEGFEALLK
Sequence of JAK2 (O60674 whole entry): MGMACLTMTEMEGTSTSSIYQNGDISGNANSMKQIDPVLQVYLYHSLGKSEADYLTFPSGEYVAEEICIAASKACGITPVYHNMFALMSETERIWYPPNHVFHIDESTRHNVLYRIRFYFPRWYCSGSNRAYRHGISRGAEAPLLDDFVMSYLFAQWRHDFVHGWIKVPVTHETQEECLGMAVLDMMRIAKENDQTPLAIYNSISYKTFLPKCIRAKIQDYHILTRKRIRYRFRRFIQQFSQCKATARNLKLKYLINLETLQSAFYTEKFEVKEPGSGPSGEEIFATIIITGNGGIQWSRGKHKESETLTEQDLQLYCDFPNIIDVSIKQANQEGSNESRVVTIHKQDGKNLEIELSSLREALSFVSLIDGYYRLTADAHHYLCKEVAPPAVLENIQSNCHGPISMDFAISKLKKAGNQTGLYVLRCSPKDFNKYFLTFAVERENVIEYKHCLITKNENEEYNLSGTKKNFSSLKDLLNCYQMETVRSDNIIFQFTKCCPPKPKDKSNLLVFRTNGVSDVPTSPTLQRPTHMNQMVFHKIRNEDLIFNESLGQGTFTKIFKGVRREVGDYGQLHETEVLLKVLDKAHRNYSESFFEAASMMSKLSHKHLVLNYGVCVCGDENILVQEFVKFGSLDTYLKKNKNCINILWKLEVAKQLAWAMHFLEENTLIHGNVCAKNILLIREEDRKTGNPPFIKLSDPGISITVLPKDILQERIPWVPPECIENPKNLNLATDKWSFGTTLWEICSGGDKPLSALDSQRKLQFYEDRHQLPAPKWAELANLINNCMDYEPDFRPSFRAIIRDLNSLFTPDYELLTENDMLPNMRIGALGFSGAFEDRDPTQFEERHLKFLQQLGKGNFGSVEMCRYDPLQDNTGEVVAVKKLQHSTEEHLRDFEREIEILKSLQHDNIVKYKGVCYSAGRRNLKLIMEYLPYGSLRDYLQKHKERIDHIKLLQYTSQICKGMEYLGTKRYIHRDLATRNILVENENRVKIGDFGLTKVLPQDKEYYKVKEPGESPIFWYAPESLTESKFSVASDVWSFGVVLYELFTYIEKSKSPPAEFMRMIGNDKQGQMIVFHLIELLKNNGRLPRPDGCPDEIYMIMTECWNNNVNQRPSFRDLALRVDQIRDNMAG

`COc1cc(Nc2cc(CO)[nH]n2)nc(N(C)[C@@H]2C[C@H]3CCC[C@@H](C2)N3S(=O)(=O)N2CCCC2)n1` [Example 1-13, (3-((6-methoxy-2-(methyl((1R,3s,5S)-9-(pyrrolidin-1-ylsulfonyl)-9-azabicyclo[3.3.1]nonan-3-yl)amino)pyrimidin-4-yl)amino)-1H-pyrazol-5-yl)methanol]: in data set [1], the “HT-29 (pIC50)” value is recorded as “A (A represents a pIC50 value ≥7.5 (IC50≤32 nM))”. Further, the “JAK 1 (pKi)” value in data set [2] is given as “A (A represents a pKi value ≥10 (Ki≤0.1 nM))”. Also, the “JAK 2 (pKi)” value in data set [3] is “A (A represents a pKi value ≥10 (Ki≤0.1 nM))”.
As to `COc1cc(Nc2cc(CO)[nH]n2)nc(N[C@@H]2C[C@H]3CCC[C@@H](C2)N3S(=O)(=O)N2CC(C#N)C2)n1` [Example 1-6, 1-(((1R,3s,5S)-3-((4-((5-(hydroxymethyl)-1H-pyrazol-3-yl)amino)-6-methoxypyrimidin-2-yl)amino)-9-azabicyclo[3.3.1]nonan-9-yl)sulfonyl)azetidine-3-carbonitrile], in data set [2], the “JAK 1 (pKi)” value is “A (A represents a pKi value ≥10 (Ki≤0.1 nM))”.
Consider `COc1cc(Nc2cc(CO)[nH]n2)nc(N(C)[C@@H]2C[C@H]3CCC[C@@H](C2)N3S(=O)(=O)c2cccnc2)n1` [Example 1-15, (3-((6-methoxy-2-(methyl((1R,3s,5S)-9-(pyridin-3-ylsulfonyl)-9-azabicyclo[3.3.1]nonan-3-yl)amino)pyrimidin-4-yl)amino)-1H-pyrazol-5-yl)methanol], for which the “JAK 2 (pKi)” value in data set [3] is “A (A represents a pKi value ≥10 (Ki≤0.1 nM))”.
On to `COc1cc(Nc2cc(CO)[nH]n2)nc(N(C)[C@@H]2C[C@H]3CCC[C@@H](C2)N3S(=O)(=O)N2CC(C#N)C2)n1` [Form II, 1-(((1R,3s,5S)-3-((4-((5-(hydroxymethyl)-1H-pyrazol-3-yl)amino)-6-methoxypyrimidin-2-yl)(methyl)amino)-9-azabicyclo[3.3.1]nonan-9-yl)sulfonyl)azetidine-3-carbonitrile], for which, in data set [4], the hygroscopicity entry is on record as “slightly hygroscopic” and the “weight gain in the humidity range of 5% to 90% relative humidity” value (shortened to “weight gain … to 90% relative humidity”) was “about 1.2%”.
Consider `COc1cc(Nc2cc(CO)[nH]n2)nc(N(C)[C@@H]2C[C@H]3CCC[C@@H](C2)N3S(=O)(=O)N2CCC2)n1` [Example 1-17, (3-((2-(((1R,3s,5S)-9-(azetidin-1-ylsulfonyl)-9-azabicyclo[3.3.1]nonan-3-yl)(methyl)amino)-6-methoxypyrimidin-4-yl)amino)-1H-pyrazol-5-yl)methanol], for which the “HT-29 (pIC50)” value in data set [1] is “A (A represents a pIC50 value ≥7.5 (IC50≤32 nM))”. The “JAK 2 (pKi)” value in data set [3] was “A (A represents a pKi value ≥10 (Ki≤0.1 nM))”.
As for `COc1cc(Nc2cc(CO)[nH]n2)nc(N(C)[C@@H]2C[C@H]3CCC[C@@H](C2)N3S(=O)(=O)N2CC(C#N)C2)n1` [Form I, 1-(((1R,3s,5S)-3-((4-((5-(hydroxymethyl)-1H-pyrazol-3-yl)amino)-6-methoxypyrimidin-2-yl)(methyl)amino)-9-azabicyclo[3.3.1]nonan-9-yl)sulfonyl)azetidine-3-carbonitrile], in data set [4], the hygroscopicity result was “non-hygroscopic” and the “weight gain … to 90% relative humidity” value is “less than 0.4%”. The “weight gain … to 90% relative humidity” value in data set [4] (listed as Crystalline 1-((1R,3s,5S)-3-((4-((5-(hydroxymethyl)-1H-pyrazol-3-yl)amino)-6-me)))) is reported as “less than 0.4%”.
As for `COc1cc(Nc2cc(CO)[nH]n2)nc(N(C)[C@@H]2C[C@H]3CCC[C@@H](C2)N3S(C)(=O)=O)n1` [Example 3, (3-((6-methoxy-2-(methyl((1R,3s,5S)-9-(methylsulfonyl)-9-azabicyclo[3.3.1]nonan-3-yl)amino)pyrimidin-4-yl)amino)-1H-pyrazol-5-yl)methanol], the “absorption at the portal vein (Fa%)” value in data set [5] is reported as “greater than 40%”.
Turning to `COc1cc(Nc2cc(CO)[nH]n2)nc(N(C)[C@@H]2C[C@H]3CCC[C@@H](C2)N3S(=O)(=O)c2cncc(F)c2)n1` [Example 1-19, (3-((2-(((1R,3s,5S)-9-((5-fluoropyridin-3-yl)sulfonyl)-9-azabicyclo[3.3.1]nonan-3-yl)(methyl)amino)-6-methoxypyrimidin-4-yl)amino)-1H-pyrazol-5-yl)methanol], the “HT-29 (pIC50)” value in data set [1] is “A (A represents a pIC50 value ≥7.5 (IC50≤32 nM))”.
Take `COc1cc(Nc2cc(CO)[nH]n2)nc(N(C)[C@@H]2C[C@H]3CCC[C@@H](C2)N3S(=O)(=O)C2CC2)n1` [Example 1-14, (3-((2-(((1R,3s,5S)-9-(cyclopropylsulfonyl)-9-azabicyclo[3.3.1]nonan-3-yl)(methyl)amino)-6-methoxypyrimidin-4-yl)amino)-1H-pyrazol-5-yl)methanol]: the “HT-29 (pIC50)” value in data set [1] is given as “A (A represents a pIC50 value ≥7.5 (IC50≤32 nM))”. The “JAK 2 (pKi)” value in data set [3] is listed as “A (A represents a pKi value ≥10 (Ki≤0.1 nM))”.
On to `COc1cc(Nc2cc(CO)[nH]n2)nc(N[C@@H]2C[C@H]3CCC[C@@H](C2)N3S(=O)(=O)c2ccccc2)n1` [Example 1-8, (3-((6-methoxy-2-(((1R,3s,5S)-9-(phenylsulfonyl)-9-azabicyclo[3.3.1]nonan-3-yl)amino)pyrimidin-4-yl)amino)-1H-pyrazol-5-yl)methanol], for which, in data set [1], the “HT-29 (pIC50)” value is given as “A (A represents a pIC50 value ≥7.5 (IC50≤32 nM))”. Moreover, the “JAK 1 (pKi)” value in data set [2] is given as “A (A represents a pKi value ≥10 (Ki≤0.1 nM))”.
For `COc1cc(Nc2cc(CO)[nH]n2)nc(N(C)[C@@H]2C[C@H]3CCC[C@@H](C2)N3C(=O)C(F)F)n1` [Example 9, 2,2-difluoro-1-((1R,3s,5S)-3-((4-((5-(hydroxymethyl)-1H-pyrazol-3-yl)amino)-6-methoxypyrimidin-2-yl)(methyl)amino)-9-azabicyclo[3.3.1]nonan-9-yl)ethan-1-one], the IC50 in data set [1] (Homo sapiens, read-out: HT-29 (pIC50) (converted)) is 0.0316 to 0.2 µM.
